ChEMBL document CHEMBL3885881, “DrugMatrix”

Species: Rattus norvegicus
Test: DrugMatrix - Regimen: Daily Repeat
Assay type: toxicity, organism-based, Sprague-Dawley
Design: regimen Daily Repeat, gender Male, age 6-8 weeks
Conditions: in vivo, po, route oral GAVAGE, […]; for ABSOLUTE BASOPHIL / BASOPHIL / NUCLEATED RED BLOOD CELLS / ABSOLUTE EOSINOPHIL / ABSOLUTE LYMPHOCYTE / ABSOLUTE MONOCYTE / ABSOLUTE SEGMENTED NEUTROPHIL / EOSINOPHIL / ERYTHROCYTE COUNT / HEMATOCRIT / HEMOGLOBIN / LEUKOCYTE COUNT / LYMPHOCYTE / MEAN CORPUSCULAR HEMOGLOBIN / MEAN CORPUSCULAR VOLUME / MONOCYTE / NEUTROPHIL / PLATELET COUNT: tissue Blood; for ALANINE AMINOTRANSFERASE / ALBUMIN / ALKALINE PHOSPHATASE / ASPARTATE AMINOTRANSFERASE / BLOOD UREA NITROGEN / CARBON DIOXIDE / CHLORIDE / CHOLESTEROL / CREATINE PHOSPHOKINASE / CREATININE / GLUCOSE / LACTATE DEHYDROGENASE / LIPASE / PHOSPHORUS / SODIUM / TOTAL BILIRUBIN / TOTAL PROTEIN / URIC ACID: tissue Plasma
[1] = 0 mg/kg, 72 h, dose level Control, time 3 day
[2] = 0 mg/kg, 120 h, dose level Control, time 5 day
[3] = 25 mg/kg, 72 h, dose level Low, time 3 day
[4] = 25 mg/kg, 120 h, dose level Low, time 5 day

CC(=O)N1CCN(c2ccc(OCC3COC(Cn4ccnc4)(c4ccc(Cl)cc4Cl)O3)cc2)CC1 (configuration not stated) [KETOCONAZOLE]
ABSOLUTE BASOPHIL [1]: 0 CELLS/uL | BASOPHIL [1]: 0% | NUCLEATED RED BLOOD CELLS [1]: 0 /100WBC | ABSOLUTE BASOPHIL [2]: 0 CELLS/uL | BASOPHIL [2]: 0% | ABSOLUTE BASOPHIL [3]: 0 CELLS/uL | ABSOLUTE EOSINOPHIL [3]: 0 CELLS/uL | ABSOLUTE LYMPHOCYTE [3]: 6183 CELLS/uL | ABSOLUTE MONOCYTE [3]: 155.33 CELLS/uL | ABSOLUTE SEGMENTED NEUTROPHIL [3]: 695 CELLS/uL | BASOPHIL [3]: 0% | EOSINOPHIL [3]: 0% | ERYTHROCYTE COUNT [3]: 5.13 x10E6/uL | HEMATOCRIT [3]: 33.13% | HEMOGLOBIN [3]: 12.97 G/DL | LEUKOCYTE COUNT [3]: 7.03 x10E3/uL | LYMPHOCYTE [3]: 87.67% | MEAN CORPUSCULAR HEMOGLOBIN [3]: 25.3 pg | MEAN CORPUSCULAR VOLUME [3]: 64.73 fL | MONOCYTE [3]: 2% | NEUTROPHIL [3]: 10.33% | NUCLEATED RED BLOOD CELLS [3]: 0 /100WBC | PLATELET COUNT [3]: 1118 x10E3/uL | ALANINE AMINOTRANSFERASE [3]: 90.33 u/L | ALBUMIN [3]: 3.83 G/DL | ALKALINE PHOSPHATASE [3]: 423.67 u/L | ASPARTATE AMINOTRANSFERASE [3]: 89.33 u/L | BLOOD UREA NITROGEN [3]: 12.67 mg/dL | CARBON DIOXIDE [3]: 39 mmol/L | CHLORIDE [3]: 95.33 MEQ/L | CHOLESTEROL [3]: 74 mg/dL | CREATINE PHOSPHOKINASE [3]: 308.67 u/L | CREATININE [3]: 0.15 mg/dL | GLUCOSE [3]: 163.33 mg/dL | LACTATE DEHYDROGENASE [3]: 69.33 u/L | LIPASE [3]: 10 u/L | PHOSPHORUS [3]: 9.63 mg/dL | SODIUM [3]: 136.67 MEQ/L | TOTAL BILIRUBIN [3]: 0.13 mg/dL | TOTAL PROTEIN [3]: 5.53 G/DL | URIC ACID [3]: 0.43 mg/dL | ABSOLUTE BASOPHIL [4]: 0 CELLS/uL | ABSOLUTE EOSINOPHIL [4]: 0 CELLS/uL | ABSOLUTE LYMPHOCYTE [4]: 8189 CELLS/uL | ABSOLUTE MONOCYTE [4]: 181 CELLS/uL | ABSOLUTE SEGMENTED NEUTROPHIL [4]: 1063.33 CELLS/uL | BASOPHIL [4]: 0% | EOSINOPHIL [4]: 0% | ERYTHROCYTE COUNT [4]: 5.6 x10E6/uL | HEMATOCRIT [4]: 34.17% | HEMOGLOBIN [4]: 13.47 G/DL | LEUKOCYTE COUNT [4]: 9.43 x10E3/uL | LYMPHOCYTE [4]: 86.67% | MEAN CORPUSCULAR HEMOGLOBIN [4]: 24.07 pg | MEAN CORPUSCULAR VOLUME [4]: 61.1 fL | MONOCYTE [4]: 2% | NEUTROPHIL [4]: 11.33% | NUCLEATED RED BLOOD CELLS [4]: 0 /100WBC | PLATELET COUNT [4]: 903 x10E3/uL | ALANINE AMINOTRANSFERASE [4]: 74 u/L | ALBUMIN [4]: 4.17 G/DL | ALKALINE PHOSPHATASE [4]: 365.33 u/L | ASPARTATE AMINOTRANSFERASE [4]: 92.33 u/L | BLOOD UREA NITROGEN [4]: 11.33 mg/dL | CARBON DIOXIDE [4]: 29.33 mmol/L | CHLORIDE [4]: 103.67 MEQ/L | CHOLESTEROL [4]: 75 mg/dL | CREATINE PHOSPHOKINASE [4]: 400.67 u/L | CREATININE [4]: 0.26 mg/dL | GLUCOSE [4]: 155 mg/dL | LACTATE DEHYDROGENASE [4]: 99.67 u/L | LIPASE [4]: 11.67 u/L | PHOSPHORUS [4]: 11.1 mg/dL | SODIUM [4]: 144.93 MEQ/L | TOTAL BILIRUBIN [4]: 0.2 mg/dL | TOTAL PROTEIN [4]: 5.93 G/DL | URIC ACID [4]: 0.8 mg/dL
